In ChEMBL document CHEMBL5154889, “Development of Novel IP6K Inhibitors for the Treatment of Obesity and Obesity-Induced Metabolic Dysfunctions” (J Med Chem, 2022):
pIC50: −log10 of the molar value. Each block holds one molecule with its values, some of them ahead of it. Calls of active or inactive are those of the source. The rule behind the calls is not given here.

Legend:
[1] = molecular target: T1, Inositol hexakisphosphate kinase 3 (Homo sapiens, UniProt Q96PC2); experiment: Inhibition of N-terminal 6His-sumo-tagged recombinant human IP6K3 expressed in Escherichia coli assessed as inorganic phosphate release using InsP6 as substrate in presence of ATP measured after 60 to 120 mins by malachite green based colorimetric - DIPP1 coupled enzyme assay
T1 sequence (Q96PC2 whole entry): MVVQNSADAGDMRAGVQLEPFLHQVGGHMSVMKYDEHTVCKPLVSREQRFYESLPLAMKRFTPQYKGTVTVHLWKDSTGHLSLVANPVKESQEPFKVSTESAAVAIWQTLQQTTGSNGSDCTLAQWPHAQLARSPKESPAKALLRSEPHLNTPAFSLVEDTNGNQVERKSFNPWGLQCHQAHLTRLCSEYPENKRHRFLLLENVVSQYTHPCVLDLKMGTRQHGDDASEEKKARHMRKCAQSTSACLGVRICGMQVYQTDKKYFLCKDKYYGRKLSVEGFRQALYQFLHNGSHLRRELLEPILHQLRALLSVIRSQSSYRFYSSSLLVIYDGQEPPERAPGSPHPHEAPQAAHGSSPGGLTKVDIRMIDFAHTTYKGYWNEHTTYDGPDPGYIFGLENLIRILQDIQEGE

[2] = molecular target: T2, Inositol hexakisphosphate kinase 2 (Homo sapiens, UniProt Q9UHH9); experiment: Inhibition of N-terminal 6His-tagged/TEV cleavage site fused recombinant human IP6K2 expressed in Escherichia coli assessed as inorganic phosphate release using InsP6 as substrate in presence of ATP measured after 60 to 120 mins by malachite green based colorimetric - DIPP1 coupled enzyme assay
T2 sequence (Q9UHH9 whole entry): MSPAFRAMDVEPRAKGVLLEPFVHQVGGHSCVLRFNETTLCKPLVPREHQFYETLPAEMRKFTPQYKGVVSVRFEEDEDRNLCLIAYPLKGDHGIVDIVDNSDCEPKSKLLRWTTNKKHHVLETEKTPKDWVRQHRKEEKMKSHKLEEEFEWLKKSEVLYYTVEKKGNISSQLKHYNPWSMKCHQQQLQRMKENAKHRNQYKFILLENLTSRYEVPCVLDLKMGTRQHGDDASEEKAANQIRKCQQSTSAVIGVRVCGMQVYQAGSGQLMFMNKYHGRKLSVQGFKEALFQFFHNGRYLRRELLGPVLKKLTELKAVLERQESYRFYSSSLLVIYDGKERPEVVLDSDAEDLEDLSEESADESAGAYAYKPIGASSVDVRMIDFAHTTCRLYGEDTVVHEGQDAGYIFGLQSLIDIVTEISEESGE

[3] = molecular target: T3, Inositol hexakisphosphate kinase 1 (Homo sapiens, UniProt Q92551); experiment: Inhibition of N-terminal 6His-MBP-tagged recombinant human IP6K1 expressed in Escherichia coli assessed as inorganic phosphate release using InsP6 as substrate in presence of ATP measured after 60 to 120 mins by malachite green based colorimetric - DIPP1 coupled enzyme assay
Target sequence in this assay (Q92551 whole entry): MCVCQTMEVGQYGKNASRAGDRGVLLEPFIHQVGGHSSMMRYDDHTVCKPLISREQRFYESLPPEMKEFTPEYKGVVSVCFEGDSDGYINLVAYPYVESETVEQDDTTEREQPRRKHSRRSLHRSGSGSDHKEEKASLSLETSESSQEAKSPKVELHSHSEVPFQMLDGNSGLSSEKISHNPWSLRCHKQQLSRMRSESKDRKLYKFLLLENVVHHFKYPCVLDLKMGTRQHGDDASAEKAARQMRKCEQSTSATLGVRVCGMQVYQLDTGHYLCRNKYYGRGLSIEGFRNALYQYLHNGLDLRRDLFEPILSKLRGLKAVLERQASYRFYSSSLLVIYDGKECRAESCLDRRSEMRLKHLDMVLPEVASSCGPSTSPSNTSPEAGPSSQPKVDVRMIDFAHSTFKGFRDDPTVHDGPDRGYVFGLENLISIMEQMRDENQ

[4] = organism: Homo sapiens; experiment: Selectivity ratio of IC50 for N-terminal 6His-sumo-tagged recombinant human IP6K3 expressed in Escherichia coli assessed as inorganic phosphate release using InsP6 as substrate in presence of ATP measured to IC50 for N-terminal 6His-MBP-tagged recombinant human IP6K1 expressed in Escherichia coli assessed as inorganic phosphate release using InsP6 as substrate in presence of ATP
[5] = molecular target: T1, Inositol hexakisphosphate kinase 3; experiment: Inhibition of recombinant full length human IP6K3 assessed as inorganic phosphate release measured after 2 hrs by ADP-Glo Max assay
[6] = molecular target: T2, Inositol hexakisphosphate kinase 2; experiment: Inhibition of recombinant full length human IP6K2 assessed as inorganic phosphate release measured after 30 mins by ADP-Glo Max assay
[7] = molecular target: T3, Inositol hexakisphosphate kinase 1; experiment: Inhibition of recombinant full length human IP6K1 in HCT-116 cells assessed as reduction in InsP7 level at 10 to 30 uM measured after 30 mins by toluidine blue staining based analysis; format: cell-based; conditions: dose 10-30 µM
Target sequence in this assay (Q92551 whole entry, looked up): as the sequence (Q92551 whole entry) above

[8] = molecular target: T3, Inositol hexakisphosphate kinase 1; experiment: Inhibition of recombinant full length human IP6K1 assessed as inorganic phosphate release measured after 30 mins by ADP-Glo Max assay
Target sequence in this assay (Q92551 whole entry): as above

[9] = AUClast in diet-induced obesity CD1 mouse at 5 mg/kg, ip measured up to 24 hrs post-dosing by LC-MS/MS analysis; format: ADME, organism-based; parameters: dose 5 mg/kg, time < 24 hrs, route ip; conditions: in vivo
[10] = tested on: Mus musculus; experiment: Anti-obesity activity in high fat diet-induced obesity C57BL6J mouse model assessed as reduction in inguinal-adipose tissue weight at 5 mg/kg, ip administered for 4 weeks; format: functional, organism-based
[11] = tested on: Mus musculus; experiment: Anti-diabetic activity in 16 hrs fasted C57BL6J mouse model of high fat diet-induced obesity assessed as improved blood glucose disposal at 2 mg/kg, ip administered for 3 weeks by insulin tolerance test; format: functional, organism-based
[12] = molecular target: Death-associated protein kinase 1 (Homo sapiens) (UniProt P53355); experiment: Inhibition of DAPK1 (unknown origin) at 1 uM relative to control
Death-associated protein kinase 1 (Homo sapiens), sequence (P53355 whole entry, looked up): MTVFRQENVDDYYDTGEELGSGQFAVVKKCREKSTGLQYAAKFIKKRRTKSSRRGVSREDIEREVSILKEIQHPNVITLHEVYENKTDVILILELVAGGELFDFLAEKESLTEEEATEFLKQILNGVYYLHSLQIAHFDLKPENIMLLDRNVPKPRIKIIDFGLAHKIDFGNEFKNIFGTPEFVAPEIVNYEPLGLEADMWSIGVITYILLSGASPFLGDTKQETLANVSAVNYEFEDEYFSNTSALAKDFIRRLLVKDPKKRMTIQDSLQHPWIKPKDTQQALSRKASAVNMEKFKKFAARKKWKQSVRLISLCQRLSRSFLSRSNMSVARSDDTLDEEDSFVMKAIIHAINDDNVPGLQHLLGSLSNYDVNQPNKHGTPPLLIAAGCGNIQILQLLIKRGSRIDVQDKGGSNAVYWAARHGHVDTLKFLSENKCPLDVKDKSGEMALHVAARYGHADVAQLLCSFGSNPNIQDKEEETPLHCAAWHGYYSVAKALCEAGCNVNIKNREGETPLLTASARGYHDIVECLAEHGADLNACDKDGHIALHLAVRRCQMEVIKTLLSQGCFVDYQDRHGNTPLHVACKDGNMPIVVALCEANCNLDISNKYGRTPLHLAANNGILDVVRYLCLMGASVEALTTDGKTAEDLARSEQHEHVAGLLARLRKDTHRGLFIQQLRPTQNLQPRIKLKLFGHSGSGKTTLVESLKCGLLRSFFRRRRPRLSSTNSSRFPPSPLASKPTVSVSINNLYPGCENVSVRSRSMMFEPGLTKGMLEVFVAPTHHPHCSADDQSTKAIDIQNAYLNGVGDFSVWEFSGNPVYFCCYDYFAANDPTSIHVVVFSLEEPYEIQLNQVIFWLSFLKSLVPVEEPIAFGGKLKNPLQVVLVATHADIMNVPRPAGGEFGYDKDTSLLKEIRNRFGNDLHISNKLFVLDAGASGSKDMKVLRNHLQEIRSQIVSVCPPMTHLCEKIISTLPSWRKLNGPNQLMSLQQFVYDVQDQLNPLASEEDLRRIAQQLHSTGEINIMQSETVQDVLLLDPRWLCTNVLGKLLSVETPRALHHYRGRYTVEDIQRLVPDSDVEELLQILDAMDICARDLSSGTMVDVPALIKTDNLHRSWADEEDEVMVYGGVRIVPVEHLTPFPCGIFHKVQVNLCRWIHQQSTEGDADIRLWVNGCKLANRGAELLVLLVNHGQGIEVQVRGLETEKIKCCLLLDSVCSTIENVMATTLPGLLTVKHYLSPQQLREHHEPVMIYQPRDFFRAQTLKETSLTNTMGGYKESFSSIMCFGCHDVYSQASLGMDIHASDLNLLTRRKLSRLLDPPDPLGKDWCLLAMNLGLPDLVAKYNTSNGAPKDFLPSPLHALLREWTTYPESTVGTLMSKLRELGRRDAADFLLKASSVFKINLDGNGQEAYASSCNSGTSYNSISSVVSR

[13] = tested on: Mus musculus; experiment: Anti-diabetic activity in 5 hrs fasted C57BL6J mouse model of high fat diet-induced obesity assessed as improved blood glucose disposal at […], ip administered for 1 weeks by insulin tolerance test; format: functional, organism-based
[14] = tested on: Mus musculus; experiment: Anti-obesity activity in high fat diet-induced obesity C57BL6J mouse model assessed as reduction in epididymal-adipose tissue weight at 5 mg/kg, ip administered for 4 weeks; format: functional, organism-based
[15] = tested on: Mus musculus; experiment: Anti-obesity activity in high fat diet-induced obesity C57BL6J mouse model assessed as reduction in fat mass at 5 mg/kg, ip administered for 4 weeks; format: functional, organism-based
[16] = molecular target: Inositol-trisphosphate 3-kinase A (Homo sapiens) (UniProt P23677); experiment: Inhibition of N-terminal 6His-tagged/TEV cleavage site fused recombinant human IP3KA (173 to 461 residues) expressed in Escherichia coli using [3H]-Ins91,4,5)P3 as substrate measured after 60 mins by HPLC analysis
Inositol-trisphosphate 3-kinase A (Homo sapiens), sequence (P23677 whole entry, the tested form may be a part): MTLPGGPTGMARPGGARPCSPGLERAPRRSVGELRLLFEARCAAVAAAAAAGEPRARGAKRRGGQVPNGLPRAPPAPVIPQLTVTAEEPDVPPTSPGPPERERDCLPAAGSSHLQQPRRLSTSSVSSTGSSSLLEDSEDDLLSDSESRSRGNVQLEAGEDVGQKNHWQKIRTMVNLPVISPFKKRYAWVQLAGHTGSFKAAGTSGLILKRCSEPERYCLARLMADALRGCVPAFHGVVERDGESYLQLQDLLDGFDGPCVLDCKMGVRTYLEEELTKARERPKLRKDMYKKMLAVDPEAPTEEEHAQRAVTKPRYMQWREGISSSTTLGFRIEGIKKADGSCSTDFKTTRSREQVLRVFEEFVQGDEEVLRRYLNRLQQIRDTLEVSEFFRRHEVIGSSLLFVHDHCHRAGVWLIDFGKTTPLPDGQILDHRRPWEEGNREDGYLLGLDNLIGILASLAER

[17] = tested on: Mus musculus; experiment: Anti-diabetic activity in 16 hrs fasted C57BL6J mouse model of high fat diet-induced obesity assessed as reduction in pyruvate-induced gluconeogenesis at 2 mg/kg, ip administered for 4 weeks by pyruvate tolerance test; format: functional, organism-based
[18] = tested on: Mus musculus; experiment: Anti-obesity activity in high fat diet-induced obesity C57BL6J mouse model assessed as reduction in lean mass at 5 mg/kg, ip administered for 4 weeks; format: functional, organism-based
[19] = molecular target: CYP2C9 (Homo sapiens, UniProt P11712); experiment: Inhibition of CYP2C9 in human liver microsomes at 10 uM in presence of NADPH by LC-MS/MS analysis; format: ADME, Microsome
CYP2C9, sequence (P11712 whole entry): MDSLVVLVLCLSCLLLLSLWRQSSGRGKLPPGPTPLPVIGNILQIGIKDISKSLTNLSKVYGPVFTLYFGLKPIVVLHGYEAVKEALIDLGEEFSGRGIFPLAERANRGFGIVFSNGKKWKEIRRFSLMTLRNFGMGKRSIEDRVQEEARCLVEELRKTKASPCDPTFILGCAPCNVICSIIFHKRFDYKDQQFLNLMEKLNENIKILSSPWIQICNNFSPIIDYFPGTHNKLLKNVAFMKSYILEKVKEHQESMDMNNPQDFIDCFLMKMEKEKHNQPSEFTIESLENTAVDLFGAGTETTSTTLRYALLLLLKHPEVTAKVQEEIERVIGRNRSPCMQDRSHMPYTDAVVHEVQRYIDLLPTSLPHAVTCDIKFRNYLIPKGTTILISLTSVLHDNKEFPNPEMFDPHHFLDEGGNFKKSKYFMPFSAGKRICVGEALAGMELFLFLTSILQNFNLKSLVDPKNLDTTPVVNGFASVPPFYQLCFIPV

[20] = tested on: Mus musculus; experiment: Anti-obesity activity in high fat diet-induced obesity C57BL6J mouse model assessed as reduction in body weight at 5 mg/kg, ip administered for 4 weeks; format: functional, organism-based
[21] = tested on: Mus musculus; experiment: Reduction in liver weight in C57BL6J mouse model of high fat diet-induced obesity at 2 mg/kg, ip administered for 4 weeks by H and E staining assay; format: functional, organism-based
[22] = tested on: Mus musculus; experiment: Reduction in hepatic steatosis in C57BL6J mouse model of high fat diet-induced obesity at 2 mg/kg, ip administered for 4 weeks by H and E staining assay; format: functional, organism-based
[23] = Clearance in diet-induced obesity CD1 mouse at 5 mg/kg, iv measured up to 24 hrs post-dosing by LC-MS/MS analysis; format: ADME, organism-based; conditions: in vivo
[24] = AUClast in diet-induced obesity CD1 mouse model at 5 mg/kg, iv measured up to 24 hrs post-dosing by LC-MS/MS analysis; format: ADME, organism-based; parameters: dose 5 mg/kg, time < 24 hrs, route iv; conditions: in vivo

Structure (SMILES): O=C(O)c1ccc2noc(-c3ccc(NC(=O)c4ccccc4)cc3)c2c1
pIC50 [1]: 6.70

Structure (SMILES): O=C(O)c1ccc2noc(-c3ccc(NC(=O)C4CCCC4)cc3)c2c1
pIC50 [1]: 6.62

Structure (SMILES): O=C(O)/C=C/c1ccc2noc(-c3ccc(-c4ccccc4)cc3)c2c1
pIC50 [1]: 6.70

Structure (SMILES): O=C(O)c1ccc2noc(-c3cccc(-c4ccccc4)c3)c2c1
pIC50 [1]: 6.08
pIC50 [2]: 6.89

Structure (SMILES): O=C(O)/C=C/c1ccc2noc(-c3ccc(OC(F)(F)F)cc3)c2c1
pIC50 [1]: 5.08

Structure (SMILES): O=[N+]([O-])c1ccc(CNc2nc(NCc3cccc(C(F)(F)F)c3)nc3[nH]cnc23)cc1
pIC50 [1]: 4.84
pIC50 [3]: 6.00
pIC50 [2]: 5.70

Structure (SMILES): O=C(O)c1ccc2noc(-c3cccc(NC(=O)C4CC4)c3)c2c1
pIC50 [1]: 5.55

Structure (SMILES): O=C(O)c1ccc2noc(-c3cccc(C(F)(F)F)c3)c2c1
pIC50 [1]: 5.34

Structure (SMILES): O=C(O)/C=C/c1ccc2c(-c3ccccc3)onc2c1
Ratio IC50 [4]: 3.6

Structure (SMILES): Cc1cc(C)cc(-c2onc3ccc(C(=O)O)cc23)c1
pIC50 [1]: 5.61

Structure (SMILES): O=C(O)c1ccc2c(c1)C1(CCN(C(=O)c3ccc(Cl)cc3)CC1)C(=O)N2
pIC50 [5]: 8.10
pIC50 [6]: 7.60
inhibition [7]: Active
pIC50 [8]: 7.57

Structure (SMILES): CN(C)C(=O)/C=C/c1ccc2noc(-c3ccccc3)c2c1
Ratio IC50 [4]: > 3.4
pIC50 [1]: < 4.00

Structure (SMILES): O=C(O)c1ccc2noc(-c3ccc(N4CCCCC4)cc3)c2c1
pIC50 [1]: 5.75

Structure (SMILES): Cc1cccc(-c2onc3ccc(/C=C/C(=O)O)cc23)c1
pIC50 [1]: 5.44

Now from value to molecule, other results behind:

pIC50 [1]: 5.57
Structure (SMILES): O=C(O)c1ccc2noc(-c3ccccc3)c2c1

pIC50 [1]: 5.85
Structure (SMILES): Cc1cccc(-c2onc3ccc(C(=O)O)cc23)c1

pIC50 [1]: 5.66
Structure (SMILES): O=C(O)c1ccc2noc(-c3ccc(N4CCCC4=O)cc3)c2c1

pIC50 [1]: 6.17
Structure (SMILES): O=C(O)c1ccc2noc(-c3ccc(-c4ccncc4)cc3)c2c1

pIC50 [1]: 6.47
pIC50 [2]: 6.46
Structure (SMILES): CC(C)NC(=O)c1ccc(-c2onc3ccc(C(=O)O)cc23)cc1

pIC50 [1]: 6.07
Structure (SMILES): O=C(O)c1ccc2noc(-c3cccc(Oc4ccccc4)c3)c2c1

pIC50 [1]: 6.12
Structure (SMILES): O=C(O)/C=C/c1ccc2noc(-c3ccc(Oc4ccccc4)cc3)c2c1

Ratio IC50 [4]: 5.2
pIC50 [1]: 5.65
pIC50 [3]: 6.37
Structure (SMILES): O=C(O)c1ccc2noc(-c3ccc(Oc4ncc(Cl)cc4Cl)cc3)c2c1

AUClast [9]: 2527 ng·h/mL
inhibition [16]: Active
inhibition at 10 µM [19]: 36%
clearance [23]: 13.7 mL/min/kg
AUClast [24]: 6054 ng·h/mL
Structure (SMILES): O=C(O)c1ccc2noc(-c3ccc(-c4ccccc4)cc3)c2c1
Activity [10]: Active
Activity [11]: Active
inhibition [12]: 31%
Activity [13]: Active
Activity [14]: Active
Activity [15]: Active
Activity [17]: Active
Activity [18]: Active
Activity [20]: Active
Activity [21]: Active
Activity [22]: Active

pIC50 [1]: 6.68
pIC50 [2]: 6.09
Structure (SMILES): CC(C)C(=O)Nc1ccc(-c2onc3ccc(C(=O)O)cc23)cc1

pIC50 [1]: 4.96
Structure (SMILES): O=C(O)c1ccc2noc(-c3cccc(Oc4ccccn4)c3)c2c1

pIC50 [1]: 5.51
Structure (SMILES): O=C(O)c1ccc2noc(-c3cccc(Oc4ncc(Cl)cc4Cl)c3)c2c1

pIC50 [1]: 6.37
Structure (SMILES): O=C(O)c1ccc2noc(-c3ccc(NC(=O)c4ccncn4)cc3)c2c1

pIC50 [1]: 5.89
Structure (SMILES): O=C(O)c1ccc2noc(-c3ccc(Cc4ccccc4)cc3)c2c1

pIC50 [1]: 6.26
Structure (SMILES): O=C(O)c1ccc2noc(-c3ccc(Oc4ccccc4)cc3)c2c1
